From patent US20210251955A1, “PREVENTION OF AGE RELATED CLONAL HEMATOPOIESIS AND DISEASES ASSOCIATED THEREWITH” (Yeda Research and Development Co. Ltd., priority 2018, published 2021)
Entries after “also recorded” stand apart in the source; their conditions may differ.

Key:
[1] = test system: spliceosomal-mutant leukemias; conditions: PDX, Lee et al. Nat Med (2016); cited from earlier work
spliceosomal-mutant AML = conditions: Lee et al. Nat Med (2016); cited from earlier work
[2] = test system: K562 cells (parental, SF3B1^K700E, SRSF2^P95H); assay: RNA-sequencing of parental K562 and isogenic SF3B1^K700E and SRSF2^P95H lines, differential splicing; assay type: cell-based; conditions: for Splicing changes relative to DMSO treatment: at the IC50 of each drug in parental K562 cells, regardless of mutation status
Excerpt: (§1) FIGS. 5A-D illustrate the preferential response of spliceosomal mutant hematopoietic cells to indisulam. (FIG. 5A) IC50 plots of isogenic K562 (left) and NALM-6 (right) cells to indisulam. These are cell with introduction of a spliceosomal gene mutation into the endogenous locus. (FIG. 5B) Western blots of RBM39 in the K562 cells from (FIG. 5A) at increasing doses of indisulam. (FIG. 5C) Log10 IC50 waterfall plots of response of AML cell lines with naturally occurring mutations in splicing factors to indisulam. Red bars represent cells with naturally occurring mutations in splicing factors. (FIG. 5D) Bar plot of number of differential splicing events across parental, SF3B1^K700E/WT, and SRSF2^P95H/WT K562 cells. The numbers above each bar indicate number of differentially spliced events.
Identification and Quantification of Differential Splicing
Isoform ratios for all alternative splicing events were quantified using MISO v2.0. Constitutively spliced exons and introns were quantified using junction-spanning reads. The conditional knockin and knockout mice were compared in a pair-wise manner, and for each pair the analysis was restricted to splicing events with 20 or more reads supporting either or both isoforms, and where the event was alternatively spliced in the sample pair. […] The human AML samples were analyzed by calculating the median isoform ratios across all 28 SRSF2 wildtype samples, and comparing that in a pair-wise manner to each SRSF2 mutant sample, using the same methodology as for the knockin and knockout mice. The Mx1-Cre^+Srsf2^+/+ or Mx1-Cre^+Srsf2^P95H/+E7107-treated mice were compared in a pair-wise manner against the median isoform ratios of their vehicle-treated counterparts, using the same methodology. For the MLL-AF9 AML transformed mice there were sufficient replicates to do a group-based comparison within the Srsf2P95H and wildtype genotypes individually (N=5 for each genotype-treatment combination). E7107- and vehicle-treated mice were compared in a two-sided Wilcoxon rank-sum test, using the total number of isoform reads within each treatment group.
In parallel, RNA-seq was carried out of the same cell lines treated with E7107, a small molecule that inhibits splicing through impeding binding of SF3B1 to the branch point [Finci et al., Genes & Dev. (2018) 32: 309-320].
Thus, both genetic as well pharmacologic degradation of RBM39 disrupts splicing as well as other pathways required for leukemogenicity.

parental K562 cells = assay: IC50 in parental K562 cells; assay type: cell-based; conditions: Homo sapiens
RBM39 = molecular target: T1, RBM39 (Homo sapiens, UniProt Q14498+Q66K64); assay: RBM39 protein levels (Western blot) in isogenic leukemia cell lines; assay type: cell-based
T1 construct: endogenous in cells; host or cells: isogenic K562 / NALM-6 (and TF-1) leukemia cells, wild type or with knock-in of spliceosomal gene mutations
Method: (§2) (FIG. 4A) Sulfonamides bridge RBM39 to the CUL4-DDB1-DDA1-DCAF15 E3 ubiquitin ligase complex, leading to polyubiquitination and proteasomal degradation of RBM39. IC50 curves of the sulfonamide E7820 in isogenic (FIG. 4B) K562 and (FIG. 4C) NALM6 WT or mutant for SF3B1. (FIG. 4D) Western blots of RBM39 levels+[…] of the sulfonamides Indusulam or E7820 from the cells in (FIG. 4C).
as §1
The effects of indisulam and the sulfonamide analogue, E7820, were first examined across a panel of 18 genetically diverse AML cell lines. […]

[3] = test system: panel of 18 genetically diverse AML cell lines; assay: Cell viability upon sulfonamide exposure across a panel of 18 AML cell lines; assay type: cell-based
Excerpt: (§3) The effects of indisulam and the sulfonamide analogue, E7820, were first examined across a panel of 18 genetically diverse AML cell lines.

[4] = test system: isogenic K562, TF-1 and NALM-6 cells expressing mutations in SF3B1, SRSF2, U2AF1; assay: Growth inhibition of isogenic leukemia lines with or without spliceosomal hotspot mutations; assay type: cell-based; conditions: isogenic K562, TF-1, NALM-6
Method: as §2, §1, §3

[5] = test system: Srsf2^P95H/WT MLL-AF9 AML cells; assay: In vitro viability (MTS) of isogenic murine MLL-AF9 AML cells, Srsf2 WT vs Srsf2 mutant; assay type: cell-based
Excerpt: FIGS. 1A-E illustrate the effects of PRMT inhibition on splicing. (FIG. 1A) Diagram of the role of PRMT5 and the type I PRMTs in splicing regulation. PRMTs methylate arginines on splicing proteins to promote spliceosome assembly and are required for proper splicing function. IC50 curves of spliceosomal mutant acute myeloid leukemia cells or their WT counterparts exposed to (FIG. 1B) the PRMT5 inhibitor GSK591 or (FIG. 1C) the PRMT1 inhibitor MS-023. Western blots of (FIG. 1D) symmetric dimethyl arginine (SDMA) or (FIG. 1E) asymmetric dimethyl arginine (ADMA) from the cells in (FIG. 1B) and […] respectively.
FIG. 2 illustrates drug sensitivity of AML cells with SMMs or partial loss of PRMT5 to inhibitors of splicing, PRMTs, or LSD1. MLL-AF9 Srsf2^WT/WT; MLL-AF9 Srsf2^P95H/WT or MLL-AF9 Prmt5^+/− cells were treated for 7 days with the indicated compounds in 384 wells (5 increasing concentrations per compound). Viability at day 7 was scored by MTS assay and reported as the ratio over control treated cells (with equivalent dilution of DMSO). The experiment was conducted in biological triplicate, and each individual run was repeated in technical triplicate. […]
Of note, the SF3B1 inhibitor, E7107, was used in the same assays as a positive control. […] Viability at day 7 was scored by MTS assay and reported as the ratio over control treated cells (with equivalent dilution of DMSO). […]

[6] = test system: SF3B1 as well as SRSF2-mutant AML and chronic myelomonocytic leukemia (CMML); conditions: Seiler et al., Nature Medicine (2018); cited from earlier work

CC[C@H](O)[C@@H](C)[C@H]1O[C@@H]1C[C@@](C)(O)/C=C/C=C(\C)[C@H]1OC(=O)C[C@H](O)CC[C@@](C)(O)[C@@H](OC(=O)N2CCN(C3CCCCCC3)CC2)/C=C/[C@@H]1C [E7107]
Eradication of leukemia [1]: complete eradication could not be achieved
Human leukemic cell burden, mutant versus WT [1]: greater reduction in human leukemic cell burden
Sensitivity of spliceosomal-mutant AML over isogenic WT in vivo (spliceosomal-mutant AML): differentially sensitive
Splicing changes relative to DMSO treatment [2]: increased cassette exon skipping and intron retention

Cc1ccc(NS(=O)(=O)c2cccc(C#N)c2)c2[nH]cc(C#N)c12 [E7820]
IC50 (parental K562 cells): 1 µM
Degradation of RBM39 (RBM39): dose-dependent degradation of RBM39
Differential splicing events in SF3B1^K700E cells versus SF3B1 wild-type ([2]; 1 μM E7820): greater number of differential splicing events
Splicing of SUPT6H, hnRNPH and SRSF10 mRNAs ([2]; E7820 exposure): intron retention that was most pronounced in spliceosomal mutant cells
Splicing changes relative to DMSO treatment [2]: increased cassette exon skipping and intron retention
Changes in splicing, E7820 versus E7107 ([2]; equipotent non-toxic doses, within each cell type and splicing category): greater changes in splicing
Sensitivity (cell viability) of most cell lines [3]: sub-micromolar sensitivity
Preferential sensitivity of spliceosomal mutant cells to growth inhibition over wild-type [4]: preferentially sensitive

O=C(NC[C@H](O)CN1CCc2ccccc2C1)c1ccnc(NC2CCC2)c1 [GSK591]
Sensitivity of Srsf2-mutant cells versus wildtype [5]: more sensitive

CC(C)Oc1ccc(-c2c[nH]cc2CN(C)CCN)cc1 [MS-023]
Sensitivity of Srsf2-mutant cells versus wildtype [5]: more sensitive

NS(=O)(=O)c1ccc(S(=O)(=O)Nc2cccc3c(Cl)c[nH]c23)cc1 [indisulam]
Sensitivity (cell viability) of most cell lines [3]: sub-micromolar sensitivity
Preferential sensitivity of spliceosomal mutant cells to growth inhibition over wild-type [4]: preferential effects; also recorded: preferentially sensitive

H3B-8800
Preferential effects in spliceosomal-mutant disease [6]: preferential effects
Splicing fidelity [6]: dose-dependent reductions in splicing fidelity
